The values below come from US20220029188A1, “REDOX FLOW BATTERY” (IP2IPO Innovations Limited, priority 2018, published 2022).

Values after ≈ are worked out from the molar mass of the structure shown. Read-outs that look alike come from different tables or passages of the source.

For data set [1] the following is noted: comparison species; cited from earlier work.
The conditions of data set [2]: comparison systems; cited from earlier work.
The conditions of data set [3]: comparison systems; cited from earlier work. The source holds these as a separate data set.
Data set [4] in a line: Rotating disk electrode LSV, Levich, Koutecký-Levich and Tafel analysis, 1 mM BQDS in 1 M H2SO4. Type of data set: physicochemical. The procedure: (§1) Rotating Disk Electrode (RDE) techniques were performed using a mirror polished glassy 5 mm diameter carbon disk electrode (Pine Instruments, AFE6R1 AU) equipped within a rotator (AFMSRCE). Electrochemical tests were performed using a potentiostat (Autolab, model PGSTAT20) and a three-compartment electrochemical glass cell which employed a Pt wire counter electrode. A saturated calomel reference electrode (SCE, E°=0.244 V vs. SHE at 25° C.) was used as the reference electrode, which was ionically connected to the main compartment of the electrochemical glass cell via a Luggin capillary.
(§2) The rotation rates were from 500 rpm to 3000 rpm. CV scan rates were from 10 mV s^−1 to 200 mV s^−1. LSV scan rate was 5 mV s^−1.

A short description of data set [5]: Standard electrochemical potential from CV experiments. Type of data set: physicochemical. On the procedure:
as §1, §2

Data set [6] is described as follows: Rotating disk electrode measurements (Levich equation), Example 6. Type of data set: physicochemical. Particulars: 1 mM, kinematic viscosity 0.01 cm^2 s^−1. On the procedure:
The hydroquinone concentration was 1 mM and the kinematic viscosity of the solution was 0.01 cm^2 s^−1. Using the Levich equation, the diffusion coefficient of benzoquinone was calculated to be 1.5707×10^−7 cm^2 s^−1.

Data set [7] can be described thus: Cyclic voltammogram of 1 mM BQ in 1 M H2SO4. Particulars: 1 mM in 1 M sulphuric acid, scan rate 50 mV s^−1, glassy carbon electrode. Type of data set: physicochemical. The source says: The working electrode was a glassy carbon electrode and the counter electrode was a platinum wire.

The term solubility denotes how much of the substance goes into solution per volume. For the compound `Oc1ccc(O)cc1` [hydroquinone], in data set [1], the charge transfer coefficient is listed as 0.51 and the diffusion coefficient is on record as 5.03×10^−6 cm^2 s^−1. In data set [2], the electrochemical potential result is on record as “identical potential as Fe-NCL”. Besides, the solubility in data set [3] is 0.5 M (≈ 55.1 mg/mL).

As for `O=S(=O)([O-])c1cc(O)c(O)c(S(=O)(=O)[O-])c1.[Na+].[Na+]` [BQDS, 4,5-Dihydroxy-1,3-benzenedisulfonic acid disodium salt monohydrate], the diffusion coefficient in data set [4] (determined from LSV, 1 mM in 1 M H2SO4) is 5.15×10^−6 cm^2 s^−1. The compound further came in with a charge transfer coefficient in data set [4] (from Koutecký-Levich plots and Tafel plot) of 0.34. In data set [5], this compound gave a standard electrochemical potential of 0.86 V vs SHE.

Take `O=C1C=C(S(=O)(=O)O)C=C(S(=O)(=O)O)C1=O` [BQ]: the diffusion coefficient in data set [6] is 1.5707×10^−7 cm^2 s^−1. Also, in data set [7], the oxidation peak is listed as 1 V vs MSE and the reduction peak stood at 0.7 V vs MSE.

For the compound `C[N+](C)(C)C[c-]1cccc1.[Cl-].[Fe+2].c1cc[cH-]c1` [Fe-NCL, (ferrocenylmethyl)trimethylammonium chloride], the diffusion coefficient in data set [1] was 3.74×10^−6 cm^2 s^−1. Besides, the electrochemical potential in data set [2] was 0.67 V vs SHE. Besides, in data set [3], the solubility is given as 4 M.

Consider `CC1(C)CCCC(C)(C)N1[O]` [TEMPO], for which, in data set [1], the charge transfer coefficient is recorded as 0.68 and the diffusion coefficient is 7.00×10^−8 cm^2 s^−1. Besides, the electrochemical potential in data set [2] was 0.90 V vs SHE.
